In brackets after ≈: the same amount, converted by molar mass. Several values for one entry are separate records, joined by “and”; a condition that tells them apart may be missing. Equal entries are not always repeated. Where two headings read alike, the source gives them in different places.
How the values were obtained:
[1] = test system: Pseudomonas aeruginosa Pa058; experiment: FIC index of combinations with conventional antibiotics, strain Pa058; type: cell-based; conditions: strain Pa058 (Col^R, Cip^R Tob^R), listed as Cysteamine (NM001)
Experimental: (§1) The bacterial inoculum was established by the dilution method from actively-growing cultures in Mueller-Hinton (MH) broth, standardized with 0.5 McFarland turbidity standard as described in the CLSI method M26-A.
(§2) Both the bacterial inoculum and the antimicrobial agents, including the compounds structurally related to cysteamine, were added simultaneously to the plates. The plates were incubated at 37° C. for 24 h and the optical density was read at 625 nm on a microtitre plate reader (BioTek Powerwave XS, Winooski, USA). The MIC was obtained as the lowest concentration of antimicrobial showing total inhibition of bacterial growth.
(§3) The FIC corresponds to an interaction coefficient indicating whether the combination of antimicrobial agents is synergistic, additive, antagonist or neutral. The FIC is determined by comparing the activity of an agent in combination (MIC of agent A+agent B) with the activity of the agent alone (MIC of agent A or agent B) as follow (Singh et al., 2000): FIC=MICA[combination]/MICA[alone]+MICB[combination]/MICB[alone]
(§4) Additive combinations of two antimicrobial agents are indicated by a FIC index of 1, whereas a FIC index<1 indicates synergistic combinations. Neutral combinations would give a FIC between 1 and 4, a FIC index higher than 4 indicates antagonist effects between the two antimicrobial agents.
(§5) The FIC was also calculated to assess the interaction of two antimicrobial agents in combination against bacterial samples.

[2] = test system: Pseudomonas aeruginosa Pa57388A; experiment: FIC index of combinations with conventional antibiotics, strain Pa57388A; type: cell-based; conditions: strain Pa57388A (Col^R), listed as Cysteamine (NM001)
Experimental: as §1, §2, §3, §4, §5

[3] = test system: Pseudomonas aeruginosa Pa57388D; experiment: FIC index of combinations with conventional antibiotics, strain Pa57388D; type: cell-based; conditions: strain Pa57388D (Col^R, Gent^R), listed as Cysteamine (NM001)
Experimental: as §1, §2, §3, §4, §5

[4] = test system: Pseudomonas aeruginosa Pa01; experiment: MIC determination, strain Pa01; type: cell-based
Experimental: as §1
as §2, with “The MIC was obtained as the lowest concentration of antimicrobial showing total inhibition of bacterial growth.” left out
(§6) A number of compounds related in chemical structure to cysteamine were examined for antimicrobial activity; cystamine (dihydrochloride salt), taurine and 2,3-dimercaptosuccinic acid. Other compounds chemically related to cysteamine are known, but are toxic, and are therefore of no utility in a drug of this nature.

[5] = test system: Pseudomonas aeruginosa Pa14; experiment: MIC determination, strain Pa14; type: cell-based
Experimental: as §1
as §2, with “The MIC was obtained as the lowest concentration of antimicrobial showing total inhibition of bacterial growth.” left out
as §6

[6] = test system: Pseudomonas aeruginosa Pa058; experiment: MIC determination, strain Pa058; type: cell-based
Experimental: as §1
as §2, with “The MIC was obtained as the lowest concentration of antimicrobial showing total inhibition of bacterial growth.” left out
as §6

[7] = test system: Pseudomonas aeruginosa NH57388A; experiment: MIC determination, strain NH57388A; type: cell-based
Experimental: as §1
as §2, with “The MIC was obtained as the lowest concentration of antimicrobial showing total inhibition of bacterial growth.” left out
as §6

[8] = test system: Burkholderia cepacia NCTC10743; experiment: MIC100 and FIC of cysteamine and tobramycin, MH broth (CLSI) and artificial sputum medium; type: cell-based
Experimental: as §2, §3
(§7) The complex pathophysiology of CF is characterized by airway obstruction caused by abnormal mucus secretion and infection, with 60-80% of patients being chronically infected with the biofilm-forming bacteria Pseudomonas aeruginosa (George et al., 2009). With a prevalence of up to 10% in adult CF patients, B. cepacia complex is a rare but major concern due to its high virulence, morbidity and transmissibility (O'Malley, 2009; Brüssow, 2012). We tested the antimicrobial activity of cysteamine-tobramycin combinations in artificial sputum medium (Yang, et al., 2011) against 4 P. aeruginosa (PAO1, ATCC27853, DSMZ1128 and DSMZ1299) and 2 B. cepacia complex strains (NCTC10743 and NCTC10744).

[9] = test system: Burkholderia cepacia NCTC10744; experiment: as above; type: cell-based; conditions: read-out: MIC100, agent alone
Experimental: as §2, §3, §7

[10] = test system: Pseudomonas planktonic cells; experiment: Antibacterial activity of Tobramycin and cysteamine, separately and combined (FIG. 1); type: cell-based; conditions: FIG. 1b
Experimental: FIG. 1A and FIG. 1B: provide a comparison of the antibacterial activity of Tobramycin and cysteamine (NM001) against Pseudomonas planktonic cells when administered separately, and in combined form. NM001 reduces the MIC of Tobramycin against planktonic cells by at least 4-fold (FIG. 1b)
as §2

[11] = test system: P. aeruginosa PAO1 biofilm; experiment: Minimum biofilm eradication concentration against established biofilm (FIG. 4); type: cell-based, Pseudomonas aeruginosa
[12] = test system: 4 P. aeruginosa (PAO1, ATCC27853, DSMZ1128 and DSMZ1299) and 2 B. cepacia complex strains (NCTC10743 and NCTC10744); experiment: microbe, parasite or virus in culture; type: cell-based, Pseudomonas aeruginosa; Burkholderia cepacia complex; conditions: Pseudomonas aeruginosa, read-out: MIC100
Excerpt: as §7

[13] = test system: P. aeruginosa PAO1 planktonic cells; experiment: MIC in physiologically-relevant ionic concentrations (FIG. 7); type: cell-based, Pseudomonas aeruginosa
Experimental: Bacterial growth was followed over a 24 h period and absorbance read using a BioTek microtitre plate reader at 625 nm. Total bacterial growth inhibition was retained in the presence of NaCl, CaCl2 or DNA and at two-fold the normal MIC100 in the presence of mucin. Tobramycin activity was inhibited in the presence of the divalent cation ca^2+ and in the presence of the anionic polymer DNA. […] A similar method as described above (1.4) was used for the determination of the antimicrobial activity of cysteamine (Lynovex®) in the presence of high ionic concentrations. […] Bacterial growth was followed over a 24 h period and absorbance read using a BioTek microtitre plate reader at 625 nm.

[14] = in combination with Ciprofloxacin

## NCCS [Cysteamine, cysteamine]
[1]; [14]
  FICI (Additive) Cip: 0.53 and 0.56
[1]; in combination with Colistin
  FICI (Additive) Col: 0.75 and 0.53 and 0.56 and 0.5
[1]; in combination with Gentamicin
  FICI (Additive) Gent: 0.56 and 0.5 and 0.75
[1]; in combination with Tobramycin
  FICI (Additive) Tob: 0.52 and 0.56 and 0.5 and 0.53 and 0.63 and 0.75
[2]; [14]
  FICI (Additive) Cip: 0.63
[2]; in combination with Colistin
  FICI (Additive) Col: 0.52 and 0.51 and 0.63 and 0.56
  FICI (Synergy) Col: 0.38 and 0.31
[2]; in combination with Gentamicin
  FICI (Additive) Gent: 0.5 and 0.56 and 0.75
  FICI (Synergy) Gent: 0.38
[2]; in combination with Tobramycin
  FICI (Additive) Tob: 0.63 and 0.75 and 0.5 and 0.56
  FICI (Synergy) Tob: 0.31 and 0.38
[3]; [14]
  FICI (Additive) Cip: 0.53 and 0.56 and 0.52 and 0.75
[3]; in combination with Colistin
  FICI (Additive) Col: 0.62 and 0.53 and 0.56 and 0.5
  FICI (Synergy) Col: 0.31 and 0.38
[3]; in combination with Gentamicin
  FICI (Additive) Gent: 0.5 and 0.63 and 0.51
  FICI (Synergy) Gent: 0.38
[3]; in combination with Tobramycin
  FICI (Additive) Tob: 0.56 and 0.51 and 0.52
  FICI (Synergy) Tob: 0.38 and 0.31 and 0.25
[4]
  MIC50: 250 to 500 µg/mL (≈ 3.24 to 6.48 mM)
  MIC90: 500 µg/mL (≈ 6.48 mM)
[4]; read-out: MIC100
  MIC: 667 µg/mL (≈ 8.64 mM)
[5]
  MIC50: 125 to 250 µg/mL (≈ 1.62 to 3.24 mM)
  MIC90: 500 µg/mL (≈ 6.48 mM)
[5]; read-out: MIC100
  MIC: 1330 µg/mL (≈ 17.3 mM)
[6]
  MIC50: 500 µg/mL (≈ 6.48 mM)
  MIC90: 1000 µg/mL (≈ 13 mM)
[6]; read-out: MIC100
  MIC: 1000 µg/mL (≈ 13 mM)
[7]
  MIC50: 250 µg/mL (≈ 3.24 mM)
  MIC90: 250 to 500 µg/mL (≈ 3.24 to 6.48 mM)
[7]; read-out: MIC100
  MIC: 667 µg/mL (≈ 8.64 mM)
[8]; NCTC10743, B. cepacia NCTC10743, FIG. 6, read-out: MIC100, agent alone
  MIC: 500 µg/mL
[8]; NCTC10743, B. cepacia NCTC10743, in both media (MH broth and ASM), FIG. 11, read-out: MIC100, agent alone
  MIC: 500 µg/mL
[8]; NCTC10743, B. cepacia NH10743, ASM (Artificial Sputum Medium), read-out: MIC100, agent alone
  MIC: 500 µg/mL
[8]; NCTC10743, B. cepacia NH10743, CLSI, read-out: MIC100, agent alone
  MIC: 250 µg/mL
[9]; NCTC10744, B. cepacia NH10744, ASM (Artificial Sputum Medium)
  MIC: 500 µg/mL
[9]; NCTC10744, B. cepacia NH10744, CLSI
  MIC: 250 µg/mL
[10]
  reduction of the MIC of Tobramycin by NM001: at least 4 fold
[11]
  minimum biofilm eradication concentration (MBEC), agent alone: 1000 µg/mL
[12]
  MIC: 250 to 500 µg/mL
[13]; in the presence of 150 mM NaCl, 1.7 mM CaCl2 or 1 mg/ml DNA
  total bacterial growth inhibition (MIC100) versus normal condition: retained
[13]; in the presence of 1% (w/v) porcine gastric mucin
  concentration for total growth inhibition relative to the normal MIC100: two-fold

Source: patent publication US11020414B2, “Antimicrobial compositions with cysteamine” (priority 2010, dated 2021)
